In patent publication US20080220499A1, “NOVEL PROTEASE FOR INDUSTRIAL APPLICATIONS” (priority 2006, published 2008):

Experiments:
Assay type in all cases: biochemical
[1] = test system: protease isolated from Pseudomonas aeruginosa MCM B-327; assay: Effect of inhibitors on protease activity; settings: for Enzyme activity: incubated 30 min, None = 42.77
Method: (§1) This example illustrates the effect of inhibitors on activity of the protease isolated from Pseudomonas aeruginosa MCM B-327 when grown in soybean meal−tryptone (HiMedia) medium. The cell free supernatant was salt precipitated and used for this study in Tris-HCl buffer, pH 8.0 at 37° C. The enzyme and the inhibitor were incubated for 30 min prior to enzyme assay.

[2] = test system: protease isolated from Pseudomonas aeruginosa MCM B-327; assay: Effect of organic solvents on protease activity; settings: for Enzyme activity: organic solvent 50% v/v, 30 min of incubation, Tris-HCl pH 8.0, 37° C., None = 42.77; for inhibition of the enzyme: 50% v/v, after 30 min of incubation
Method: The cell free supernatant was salt precipitated and used for this study in Tris-HCl buffer, pH 8.0 at 37° C.

[3] = test system: protease isolated from Pseudomonas aeruginosa MCM B-327; assay: Effect of ingredients of detergents on protease activity; settings: for Enzyme activity: incubated 30 min prior to assay, Tris-HCl pH 8.0, 37° C., None = 42.77; for effect of surfactant on protease activity (in words): 1%
Method: as §1, with “ingredients of detergents” for “inhibitors”, “ingredients of detergent” for “the inhibitor”, “assay. The enzyme was stable in detergent ingredients while 20% inhibited by SDS.” for “assay.”

[4] = test system: protease isolated from Pseudomonas aeruginosa MCM B-327; assay: Effect of metal ions on protease activity; settings: Tris-HCl pH 8.0, 37° C.; for Enzyme activity: None = 42.77
Method: This example illustrates the effect of metal ions on activity of the protease isolated from Pseudomonas aeruginosa MCM B-327 when grown in soybean meal−tryptone (HiMedia) medium. The cell free supernatant was salt precipitated and used for this study in Tris-HCl buffer, pH 8.0 at 37° C.

[5] = inhibitor 1 mM, Tris-HCl pH 8.0, 37° C.

Row | Compound | Enzyme activity [2] | effect of metal ion on enzyme activity (in words) [4] | Enzyme activity ([4]; metal ion at 5 mM) | further results
1 | O=S(=O)(F)Cc1ccccc1 [PMSF, Phenyl methyl sulphonyl fluoride] | – | – | – | Enzyme activity [1, 5]: 40.20 U/mg precipitate; Enzyme activity ([1]; inhibitor 5 mM): 31.65 U/mg precipitate
2 | m-p-xylene | 28.65 U/mg precipitate | – | – | –
3 | CCCCCCCCCCCCOS(=O)(=O)[O-].[Na+] [SDS] | – | – | – | inhibition of the enzyme ([3]; detergent ingredient 1%, 30 min): 20%; Enzyme activity ([3]; detergent ingredient 1%): 34.21 U/mg precipitate
4 | Cc1ccccc1 [Toluene] | 20.95 U/mg precipitate | – | – | inhibition of the enzyme [2]: 51%
5 | O=S(=O)([O-])[O-].[Cu+2] [CuSO4] | – | affected the enzyme activity considerably | 10.69 U/mg precipitate | –
6 | CO [Methanol] | 14.11 U/mg precipitate | – | – | –
7 | CCO [Ethanol] | 3.84 U/mg precipitate | – | – | inhibition of the enzyme [2]: 91%
8 | CCCCCCCC/C=C\CCCCCCCC(=O)OCCOCC(OCCO)C1OCC(OCCO)C1OCCO (centres unmarked) [Tween 80] | – | – | – | effect of surfactant on protease activity (in words) ([3]; 30 min): no inhibitory effect; Enzyme activity ([3]; detergent ingredient 1%): 43.62 U/mg precipitate
9 | CC(C)=O [Acetone] | 13.68 U/mg precipitate | – | – | –
10 | [Cl-].[Na+] [NaCl] | – | resistant to inhibition | 41.06 U/mg precipitate | –
11 | [Ca+2].[Cl-].[Cl-] [CaCl2] | – | resistant to inhibition | 42.34 U/mg precipitate | –
12 | O=S(=O)([O-])[O-].[Mn+2] [MnSO4] | – | resistant to inhibition | 37.21 U/mg precipitate | –
13 | O=S(=O)([O-])[O-].[Mg+2] [MgSO4] | – | resistant to inhibition | 42.77 U/mg precipitate | –
14 | O=S(=O)([O-])[O-].[Fe+2] [FeSO4] | – | resistant to inhibition | 37.64 U/mg precipitate | –
15 | O[C@@H](CS)[C@@H](O)CS [DTT, dithiothretol] | – | – | – | inhibition of the enzyme (in words) ([1]; 1 & 5 mM): completely inhibited; Enzyme activity [1, 5]: 0 U/mg precipitate; Enzyme activity ([1]; inhibitor 5 mM): 0 U/mg precipitate
16 | O=C(O)CN(CCN(CC(=O)O)CC(=O)O)CC(=O)O [EDTA, Ethylenediamine tetra acetic acid] | – | – | – | Enzyme activity ([1]; inhibitor 2 mM): 32.93 U/mg precipitate; Enzyme activity ([1]; inhibitor 5 mM): 30.36 U/mg precipitate
17 | Triton X100 | – | – | – | effect of surfactant on protease activity (in words) ([3]; 30 min): no inhibitory effect; Enzyme activity ([3]; detergent ingredient 1%): 41.49 U/mg precipitate
18 | NC(=O)CI [Iodoacetamide] | – | – | – | Enzyme activity [1, 5]: 44.05 U/mg precipitate; Enzyme activity ([1]; inhibitor 5 mM): 43.62 U/mg precipitate
19 | O=S(=O)([O-])[O-].[Zn+2] [ZnSO4] | – | affected the enzyme activity considerably | 12.40 U/mg precipitate | –
20 | c1ccccc1 [Benzene] | 11.54 U/mg precipitate | – | – | –
21 | CCCCC=O [1-pentanone] | 11.54 U/mg precipitate | – | – | –
22 | O=P(O)(O)OP(=O)(O)OP(=O)(O)O [Sodium tripolyphosphate] | – | – | – | Enzyme activity ([3]; detergent ingredient 1%): 44.05 U/mg precipitate
23 | [Cl][Hg][Cl] [HgCl2] | – | affected the enzyme activity considerably | 6.84 U/mg precipitate | Enzyme activity ([4]; HgCl2 at 1 mM): 9.83 U/mg precipitate
24 | CCCCCC [n-hexane] | 26.94 U/mg precipitate | – | – | –
25 | CC(C)CC(C)(C)C [Isooctane] | 28.65 U/mg precipitate | – | – | –
